We go through 14 compounds from patent US5571819A, “Imidazopyridines as muscarinic agents” (priority 1994, dated 1996).

SMILES strings stand for the structures. Like-named read-outs stand apart in the source and are kept apart here.

Data set [1] concerns the target T1, M1 acetylcholine receptors (Homo sapiens, UniProt P11229).
T1 sequence (P11229 1-460): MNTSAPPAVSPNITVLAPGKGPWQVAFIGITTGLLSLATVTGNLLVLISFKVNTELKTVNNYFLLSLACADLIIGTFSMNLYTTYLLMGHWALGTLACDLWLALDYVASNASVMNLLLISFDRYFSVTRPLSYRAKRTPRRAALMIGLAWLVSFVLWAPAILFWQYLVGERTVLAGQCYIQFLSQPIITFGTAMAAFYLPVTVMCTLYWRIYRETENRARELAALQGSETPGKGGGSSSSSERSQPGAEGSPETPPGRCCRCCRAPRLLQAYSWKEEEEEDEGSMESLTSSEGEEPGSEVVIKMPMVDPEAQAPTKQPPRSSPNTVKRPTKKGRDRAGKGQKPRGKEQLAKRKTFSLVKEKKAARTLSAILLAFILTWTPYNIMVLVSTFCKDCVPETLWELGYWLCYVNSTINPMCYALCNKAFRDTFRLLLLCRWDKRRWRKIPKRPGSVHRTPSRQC
Put plainly: Stimulation of phosphoinositide (PI) hydrolysis in CHO cells expressing M1 acetylcholine receptors. In kind it is cell-based. The following applies: 1 h, read-out: % PI Hydrolysis ml receptors in CHO cells maximum %, carbachol = 100%.

Data set [2] concerns the target T2, ml receptors (muscarinic receptor subtypes) (Homo sapiens, UniProt P11229).
T2 sequence (P11229 1-460): T1 sequence (P11229 1-460)
The data set is described as follows: biochemical. The data set is classed as binding.

The conditions of data set [3]: in vivo; cited from earlier work.
Data set [4] has as its system patients with mild to moderate Alzheimer's Disease. The following applies: cited from earlier work; for improvement in memory in patients: mild to moderate Alzheimer's Disease.
[5] abbreviates: ml 3H QNB Binding in CHO cells Ki (μM), [3H]QNB 0.23 nM, 37 °C, 1 hour, CHO cells, ml.
[6] abbreviates: read-out: ml 3H QNB Binding in CHO cells Ki, [3H]QNB 0.23 nM, 37 °C, 1 hour, CHO cells, ml.

With `Cn1cnc2c(O[C@H]3CN4CC[C@@H]3C4)nccc21` (relative stereo) [Example 1, endo-4-(1-Aza-bicyclo[2.2.1]hept-3-yloxy)-1-methyl-1H-imidazo[4,5-c]pyridine], the Emax in data set [1] came to 21.7%. Besides, the affinity in data set [2] (setting [5]) corresponds to a Ki of 19.3 µM. For `Cn1cnc2c(O[C@@H]3CN4CC[C@@H]3C4)nccc21` (relative stereo) [Example 4, (exo)-4-(1-Aza-bicyclo[2,2,1]hept-3-yloxy)-1-methyl-1H-imidazo[4,5-c]pyridine], the Ki in data set [2] (setting [6]) was found to be 20.6 µM. `Cn1cnc2c(O[C@H]3CN4CC[C@@H]3C4)ncnc21` (relative stereo) [Example 9, endo-6-(1Aza-bicyclo[2.2,1]hept-3-yloxy)-9-methylpurine] registered an inhibition constant (Ki) in data set [2] (setting [5]) of 27 µM.

On to `Cn1cnc2c(O[C@@H]3CN4CC[C@@H]3C4)ncnc21` (relative stereo) [Example 10, exo-6-(1Aza-bicyclo[2,2.1]hept-3-yloxy)-9-methylpurine], for which the affinity in data set [2] (setting [5]), expressed as Ki, was 17.1 µM. Regarding `Cn1cnc2c(O[C@H]3CN4CC[C@@H]3C4)nccc21` (single isomer, unassigned) [Example 3, (-)-endo-4-(1-Aza-bicyclo[2.2.1]hept-3-yloxy)-1-methyl-1H-imidazo[4,5-c]pyridine], the Emax in data set [1] turned out to be 26.2%. The compound further yielded an inhibition constant (Ki) in data set [2] (setting [5]) of 14.2 µM. Consider `c1ccc(Cn2cnc3c(OC4CN5CCC4CC5)nccc32)cc1` (single isomer, unassigned) [Example 7, (--)-3-(1-Benzyl-1H-imidazo[4,5-c]pyridin-4-yloxy)-1-aza-bicyclo[2.2.2]octane], for which the affinity in data set [2] (setting [5]), expressed as Ki, was 17.6 µM. The compound `c1ccc(Cn2cnc3c(OC4CN5CCC4CC5)nccc32)cc1` (single isomer, unassigned; (+)) [Example 6, (+)-3-(1-Benzyl-1H-imidazo[4,5-c]pyridin-4-yloxy)-1-aza-bicyclo[2.2.2]octane] displayed a Ki in data set [2] (setting [5]) of 13.4 µM. `c1ccc(Cn2cnc3c(OC4CN5CCC4CC5)nccc32)cc1` (stereo not drawn) [Example 5, 3-(1-Benzyl-1H-imidazo[4,5-c]pyridin-4-yloxy)-1-aza-bicyclo[2.2.2]octane] yielded a Ki in data set [2] (setting [5]) of 3.85 µM.

Regarding `Cn1cnc2c(OCC3CN4CCC3CC4)nccc21` (stereo not drawn) [Example 8, 3-(1-Methyl-1H-imidazo[4,5,c]pyridin-4-yloxymethyl)-1-aza-bicyclo[2.2.2]octane], the Ki in data set [2] (setting [5]) worked out at 2.65 µM. As to `Cn1c(C2(O)CN3CCC2CC3)nc2ncccc21` (stereo not drawn) [Example 13, 3-(1-Methyl-1H-imidazo[4,5-b]pyridin-2-yl)-1-aza-bicyclo[2.2.2]octan-3-ol], the Ki in data set [2] (setting [6]) amounted to 1.42 µM.

In data set [2] (setting [5]), `OC1(c2nc3c(Cl)nccc3n2Cc2ccccc2)CN2CCC1CC2` (stereo not drawn) [Example 14, 3-(1-Benzyl-4-chloro-1H-imidazo[4,5-c]pyridin-2-yl)-1-azabicyclo[2.2.2]octan-3-ol] displayed an inhibition constant (Ki) of 1.65 µM. `CCN1CCCC(O)(c2nc3c(Cl)nccc3n2Cc2ccccc2)C1` (stereo not drawn) [Example 15, 3-(1-Benzyl-4-chloro-1H-imidazo[4,5-c]pyridin-2-yl)-1-ethyl-piperidin-3-ol]: the Ki in data set [2] (read-out: ml 3H QNB Binding in CHO cells Ki) is 9.3 µM.

`COC(=O)C1=CCCN(C)C1` [arecoline]: in data set [3], the half-life result is recorded as “short half-life”. The “improvement in memory in patients” value in data set [4] was “memory improvement in patients with mild to moderate Alzheimer's Disease”. On to `Nc1c2c(nc3ccccc13)CCCC2` [tacrine], for which the adverse side effects entry in data set [4] (especially at the higher doses) was “adverse side effects especially at the higher doses where it is most effective”. In addition, the “improvement in memory in patients” value in data set [4] is listed as “improvement in memory can be shown in patients with mild to moderate Alzheimer's Disease”.
